Measurements published in PubChem BioAssay AID248 (DTP/NCI, 2004).
Values joined by “and” are separate entries in the source; they are usually repeats but may differ in a detail not shown here. Identical values can stand only once. Toxic doses and inconclusive results are not listed. Cut-off read from the data, not from the text of the source: active = T/C of 150% or more; inactive = T/C below 125%.

System: L1210 leukemia ip in BDF1 mice, survival T/C
Assay: NCI In Vivo Anticancer Drug Screen. Data for tumor model L1210 Leukemia (intraperitoneal) in B6D2F1 (BDF1) mice
Details: endpoint: mean survival time, higher = longer survival
Method in brief: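 In this screen, tumor-bearing mice given compound are compared to those given vehicle, and their survival values are reported as a treated-to-control quotient.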

[1] = dose: 100.0 mg/kg/injection, schedule: Q01DX001 (ip), vehicle: carboxymethylcellulose (CMC)
[2] = dose: 200.0 mg/kg/injection, schedule: Q01DX001 (ip), vehicle: carboxymethylcellulose (CMC)
[3] = dose: 400.0 mg/kg/injection, schedule: Q01DX001 (ip), vehicle: carboxymethylcellulose (CMC)
[4] = dose: 100.0 mg/kg/injection, schedule: Q04DX003 (ip), vehicle: Klucel (hydroxypropylcellulose) (HPC)
[5] = dose: 200.0 mg/kg/injection, schedule: Q04DX003 (ip), vehicle: Klucel (hydroxypropylcellulose) (HPC)
[6] = dose: 400.0 mg/kg/injection, schedule: Q04DX003 (ip), vehicle: Klucel (hydroxypropylcellulose) (HPC)
[7] = dose: 100.0 mg/kg/injection, schedule: Q01DX009 (ip), vehicle: Klucel (hydroxypropylcellulose) (HPC)
[8] = dose: 200.0 mg/kg/injection, schedule: Q01DX009 (ip), vehicle: Klucel (hydroxypropylcellulose) (HPC)
[9] = dose: 400.0 mg/kg/injection, schedule: Q01DX009 (ip), vehicle: Klucel (hydroxypropylcellulose) (HPC)
[10] = dose: 100.0 mg/kg/injection, schedule: Q04DX003 (ip), vehicle: gum acacia
[11] = dose: 200.0 mg/kg/injection, schedule: Q04DX003 (ip), vehicle: gum acacia
[12] = dose: 400.0 mg/kg/injection, schedule: Q04DX003 (ip), vehicle: gum acacia
[13] = dose: 100.0 mg/kg/injection, schedule: Q01DX001 (ip), vehicle: other
[14] = dose: 200.0 mg/kg/injection, schedule: Q01DX001 (ip), vehicle: other
[15] = dose: 400.0 mg/kg/injection, schedule: Q01DX001 (ip), vehicle: other
[16] = dose: 100.0 mg/kg/injection, schedule: Q04DX002 (ip), vehicle: Klucel (hydroxypropylcellulose) (HPC)
[17] = dose: 200.0 mg/kg/injection, schedule: Q04DX002 (ip), vehicle: Klucel (hydroxypropylcellulose) (HPC)

Measured: T/C

Cc1cc(O)c(C)c(C(=O)O)c1
inactive: [1] 98 % of control | [2] 106 % of control | [3] 98 % of control

Cc1ccc(NC(=O)OC/C=C/c2ccccc2)c([N+](=O)[O-])c1
inactive: [4] 90 % of control | [5] 93 % of control | [6] 93 % of control

Cc1cccc(C)c1NC(=O)c1cccc(C(=O)Nc2c(C)cccc2C)c1
inactive: [7] 98 % of control | [4] 96 % of control | [8] 111 % of control | [5] 87 % of control | [9] 105 % of control | [6] 86 % of control

Nc1ccnc(SCc2ccc(Cl)cc2)n1
inactive: [10] 105 % of control | [11] 104 % of control | [12] 98 % of control

C#C/C(CCC)=N\Nc1ccc([N+](=O)[O-])cc1[N+](=O)[O-]
inactive: dose: 50.0 mg/kg/injection, schedule: Q04DX002 (ip), vehicle: saline with Tween-80 88 % of control | dose: 100.0 mg/kg/injection, schedule: Q04DX002 (ip), vehicle: saline with Tween-80 94 % of control | dose: 200.0 mg/kg/injection, schedule: Q04DX002 (ip), vehicle: saline with Tween-80 88 % of control

CN(CCC(=O)O)S(=O)(=O)c1ccccc1
inactive: dose: 100.0 mg/kg/injection, schedule: Q01DX001 (ip), vehicle: saline 103 % of control | dose: 200.0 mg/kg/injection, schedule: Q01DX001 (ip), vehicle: saline 97 % of control | dose: 400.0 mg/kg/injection, schedule: Q01DX001 (ip), vehicle: saline 89 % of control

COc1ccc(C2(C=O)CN(C)CN2)cc1 (stereo unspecified)
inactive: [13] 96 % of control | [14] 107 % of control | [15] 96 % of control

CCn1c2ccccc2c2cc(N=C3C(=O)N(C)c4ccccc43)ccc21
inactive: [1] 95 % of control | [2] 95 % of control | [3] 95 % of control

CCOC(=O)c1ccc(NC(=S)NC(=O)c2cccc([N+](=O)[O-])c2)cc1
inactive: dose: 50.0 mg/kg/injection, schedule: Q01DX001 (ip), vehicle: saline with Tween-80 88 % of control | dose: 100.0 mg/kg/injection, schedule: Q01DX001 (ip), vehicle: saline with Tween-80 88 % of control | dose: 100.0 mg/kg/injection, schedule: Q01DX009 (ip), vehicle: saline 99 % of control and 86 % of control | dose: 100.0 mg/kg/injection, schedule: Q04DX002 (ip), vehicle: alcohol 93 % of control | dose: 100.0 mg/kg/injection, schedule: Q04DX003 (ip), vehicle: saline with Tween-80 105 % of control | dose: 200.0 mg/kg/injection, schedule: Q01DX001 (ip), vehicle: saline with Tween-80 104 % of control and 87 % of control | dose: 200.0 mg/kg/injection, schedule: Q01DX009 (ip), vehicle: saline 93 % of control and 101 % of control | dose: 200.0 mg/kg/injection, schedule: Q04DX002 (ip), vehicle: alcohol 90 % of control | dose: 200.0 mg/kg/injection, schedule: Q04DX003 (ip), vehicle: saline with Tween-80 97 % of control | dose: 400.0 mg/kg/injection, schedule: Q01DX001 (ip), vehicle: saline with Tween-80 106 % of control | dose: 400.0 mg/kg/injection, schedule: Q04DX002 (ip), vehicle: alcohol 90 % of control | dose: 400.0 mg/kg/injection, schedule: Q04DX003 (ip), vehicle: saline with Tween-80 95 % of control

Cc1ccc(NC(=O)SCc2ccccc2)c([N+](=O)[O-])c1
inactive: [7] 98 % of control | [8] 100 % of control | [9] 93 % of control

C=C(Br)CNC(=O)OCC
inactive: dose: 50.0 mg/kg/injection, schedule: Q04DX003 (ip), vehicle: saline 96 % of control | dose: 100.0 mg/kg/injection, schedule: Q04DX003 (ip), vehicle: saline 115 % of control | dose: 200.0 mg/kg/injection, schedule: Q04DX003 (ip), vehicle: saline 107 % of control

O=c1[nH]cc([N+](=O)[O-])c(=O)[nH]1
inactive: dose: 100.0 mg/kg/injection, schedule: Q04DX002 (ip), vehicle: saline 100 % of control | dose: 200.0 mg/kg/injection, schedule: Q04DX002 (ip), vehicle: saline 106 % of control | dose: 400.0 mg/kg/injection, schedule: Q04DX002 (ip), vehicle: saline 95 % of control

CCN(CC)c1ccc(Cc2ccc(N(CC)CC)cc2Br)c(Br)c1
inactive: [7] 100 % of control | [4] 96 % of control | [8] 105 % of control | [5] 104 % of control | [9] 107 % of control | [6] 94 % of control

Cc1cccc(C(=O)Cl)c1[N+](=O)[O-]
inactive: dose: 50.0 mg/kg/injection, schedule: Q01DX001 (ip), vehicle: carboxymethylcellulose (CMC) 95 % of control | [1] 93 % of control | [2] 90 % of control | [3] 95 % of control

CCCNC(=O)Oc1c(C)cccc1C
inactive: dose: 50.0 mg/kg/injection, schedule: Q01DX009 (ip), vehicle: carboxymethylcellulose (CMC) 105 % of control and 107 % of control | [13] 95 % of control | dose: 100.0 mg/kg/injection, schedule: Q01DX009 (ip), vehicle: carboxymethylcellulose (CMC) 96 % of control | [16] 92 % of control | dose: 100.0 mg/kg/injection, schedule: Q04DX002 (ip), vehicle: carboxymethylcellulose (CMC) 103 % of control and 104 % of control | dose: 100.0 mg/kg/injection, schedule: Q04DX003 (ip), vehicle: other 103 % of control | [14] 96 % of control | dose: 200.0 mg/kg/injection, schedule: Q01DX009 (ip), vehicle: carboxymethylcellulose (CMC) 103 % of control | [17] 103 % of control | dose: 200.0 mg/kg/injection, schedule: Q04DX002 (ip), vehicle: carboxymethylcellulose (CMC) 97 % of control and 88 % of control | dose: 200.0 mg/kg/injection, schedule: Q04DX003 (ip), vehicle: other 104 % of control | [15] 102 % of control | dose: 400.0 mg/kg/injection, schedule: Q04DX003 (ip), vehicle: other 109 % of control

Cc1ccc(CC(O)(CC(O)(c2ccccc2)c2ccccc2)c2ccccc2)cc1C (stereo unspecified)
inactive: dose: 75.0 mg/kg/injection, schedule: Q01DX001 (ip), vehicle: saline 92 % of control | dose: 75.0 mg/kg/injection, schedule: Q04DX003 (ip), vehicle: saline 94 % of control | dose: 150.0 mg/kg/injection, schedule: Q01DX001 (ip), vehicle: saline 92 % of control | dose: 150.0 mg/kg/injection, schedule: Q04DX003 (ip), vehicle: saline 91 % of control | dose: 300.0 mg/kg/injection, schedule: Q01DX001 (ip), vehicle: saline 90 % of control | dose: 300.0 mg/kg/injection, schedule: Q04DX003 (ip), vehicle: saline 94 % of control

[O-][N+](=Nc1ccc(Cl)cc1)c1ccc(Cl)cc1
inactive: dose: 100.0 mg/kg/injection, schedule: Q01DX001 (ip), vehicle: gum acacia 92 % of control | [10] 97 % of control | dose: 200.0 mg/kg/injection, schedule: Q01DX001 (ip), vehicle: gum acacia 93 % of control | [11] 87 % of control | dose: 400.0 mg/kg/injection, schedule: Q01DX001 (ip), vehicle: gum acacia 92 % of control | [12] 91 % of control

CCCCCCCC/C=C\CCCCCCCC(=O)OCCCCCC
inactive: dose: 100.0 mg/kg/injection, schedule: Q01DX009 (ip), vehicle: saline sonified 98 % of control | dose: 200.0 mg/kg/injection, schedule: Q01DX009 (ip), vehicle: saline sonified 102 % of control | dose: 400.0 mg/kg/injection, schedule: Q01DX009 (ip), vehicle: saline sonified 93 % of control

O=[N+]([O-])c1cccc(S(=O)(=O)OCn2ncc3ccc([N+](=O)[O-])cc32)c1
inactive: dose: 5.0 mg/kg/injection, schedule: Q01DX001 (ip), vehicle: saline 94 % of control | dose: 10.0 mg/kg/injection, schedule: Q01DX001 (ip), vehicle: saline 100 % of control | dose: 20.0 mg/kg/injection, schedule: Q01DX001 (ip), vehicle: saline 100 % of control | dose: 40.0 mg/kg/injection, schedule: Q01DX001 (ip), vehicle: saline 97 % of control

O=S(Cc1ccc(Cl)cc1)C(Cl)(Cl)c1ccc(Cl)cc1 (stereo unspecified)
inactive: [16] 116 % of control | [17] 116 % of control | dose: 400.0 mg/kg/injection, schedule: Q04DX002 (ip), vehicle: Klucel (hydroxypropylcellulose) (HPC) 94 % of control

CCc1ccc(N=Nc2c(F)c(F)c(N(C)C)c(F)c2F)cc1
inactive: [1] 102 % of control | [2] 100 % of control | [3] 100 % of control
